Experimental data taken from patent publication US20060161007A1, “Oxazole and thiazole combinatorial libraries” (priority 1999, published 2006).

Tests used:
[1] = solubility of building block 3 in solvents; assay type: physicochemical
Procedure: 2-(2′-Boc-aminomethyl-oxazole-4′-yl)-thiazole-4-carboxylic acid (37) (0.65 g, 2 mmol) was added in 30 ml of 40% TFA in DCM and stirred for 60 min. The solvent was removed by concentration under reduced pressure. The residue was diluted with 10 ml of water, which was neutralized to pH 7 by adding 1 M sodium hydroxide (aqueous solution), followed by addition of solid sodium carbonate (0.42 g, 4 mmole) and a solution of Fmoc-OSu (1 g, 3 mmole) in 60 ml of THF. After stirring for 2 hours (white solid precipitated), the reaction mixture was concentrated under reduced pressure to remove the THF, and diluted with 30 ml of water. The aqueous solution was washed with DCM (50 ml×3), and acidified to pH 3 by adding 10% potassium hydrogensulfate (aqueous solution). The white solid which formed was collected by filtration. This product was insoluble in DCM, ether, EtOAc, THF, methanol, ethanol, acetonitrile, HFIP, DMF, NMP and water. It was soluble in DMSO or the solutions containing more than 50% DMSO in DMF or NMP. The product was recrystallized in DMSO-water to give a fine white powder (0.69 g). Yield: 77%. RP-HPLC analysis: retention […]=14.18 min (average of two runs). ^1H-NMR (90 MHz, DMSO-d6) δ ppm: 8.74 (s, 1H), 8.38 (s, 1H), 7.89-7.31 (m, 8H), and 4.394.30 (m, 5H). ESI-MS (m/z): 448.2 [M +H]+, (calculated monoisotopic mass 448.10), 470.2 [M+Na]^+, 486.2 [M+K]^+.

Vibrio anguillarum = assay: growth of Vibrio anguillarum cultures (OD650) after incubation with peptide; assay type: cell-based; details: for OD650 of V. anguillarum cultures: 28°; for killing of the bacteria: OD of the cultures still increased at different incubation times; for effect on the growth of V. anguillarum cultures: result in words
Procedure: The marin bacterium Vibrio anguillarum, a fish pathogen causing the disease “vibriosis” in marine fish and shellfish were used in this experiment.
Bacteria (V. anguillarum) were grown overnight at 28° C. in Luria-Bertani (LB) 20 medium (the concentration of NaCl is 20 g/L for marine bacteria in LB medium, instead of the usual 10 g/L). The culture was re-inoculated and incubated in LB20 medium at 28° C. (ca. 2hr) to reach the exponential growth phase of the bacteria. The bacterial suspension was then dilute with 0.1×LB20 medium to make the bacterial dilution containing 2×10^3 colony-forming units (cfm)/ml.
At time zero, the bacteria were treated with the peptide in 0.1×LB20 medium. After incubation for 3 hours, 1×LB20 medium was added to the culture, and incubated for 20 hours.

DNA = DNA binding activity by capillary zone electrophoresis
Procedure: The DNA binding activity of the tetrapeptide amides in the first library was measured using capillary zone electrophoresis.

[2] = 31.2 μM peptide, 9 hr incubation
[3] = 31.2 μM peptide, 20 hr incubation
[4] = 62.5 μM peptide, 9 hr incubation
[5] = 62.5 μM peptide, 20 hr incubation
[6] = 125 μM peptide, 9 hr incubation
[7] = 125 μM peptide, 20 hr incubation
[8] = 250 μM peptide, 9 hr incubation
[9] = 250 μM peptide, 20 hr incubation
[10] = 500 μM peptide, 9 hr incubation
[11] = 500 μM peptide, 20 hr incubation

| Molecule | OD650 of V. anguillarum cultures (Vibrio anguillarum; [2]) | OD650 of V. anguillarum cultures (Vibrio anguillarum; [3]) | OD650 of V. anguillarum cultures (Vibrio anguillarum; [4]) | OD650 of V. anguillarum cultures (Vibrio anguillarum; [5]) | OD650 of V. anguillarum cultures (Vibrio anguillarum; [6]) | OD650 of V. anguillarum cultures (Vibrio anguillarum; [7]) | OD650 of V. anguillarum cultures (Vibrio anguillarum; [8]) | OD650 of V. anguillarum cultures (Vibrio anguillarum; [9]) | OD650 of V. anguillarum cultures (Vibrio anguillarum; [10]) | OD650 of V. anguillarum cultures (Vibrio anguillarum; [11]) | killing of the bacteria (Vibrio anguillarum) | effect on the growth of V. anguillarum cultures (Vibrio anguillarum) | Ka(1), stoichiometric equilibrium binding constant near saturation (DNA) | also measured |
| --- | --- | --- | --- | --- | --- | --- | --- | --- | --- | --- | --- | --- | --- | --- |
| O=C(NCc1nc(-c2nc(C(=O)O)cs2)co1)OCC1c2ccccc2-c2ccccc21 [Compound 3, 2-(2′-Fmoc-aminomethyl-oxazole-4′-yl)-thiazole-4-carboxylic acid] |  |  |  |  |  |  |  |  |  |  |  |  |  | solubility ([1]; in DCM, ethyl ether, EtOAc, THF, methanol, ethanol, acetonitrile, HFIP, DMF, NMP or water): did not dissolve; solubility ([1]; in DCM, ethyl ether, EtOAc, THF, methanol, ethanol, acetonitrile, HFIP, DMF, NMP or water, listed as Compound (3)): insoluble; solubility ([1]; in DMSO, or solutions containing at least 50% DMSO in DMF or NMP): could only dissolve; solubility ([1]; in DMSO, or solutions containing at least 50% DMSO in DMF or NMP, listed as Compound (3)): soluble |
| CC(=O)NCc1nc(-c2nc(C(=O)NCC(=O)NCc3nc(-c4nc(C(=O)NCCCN)cs4)co3)cs2)co1 [Compound L2-9] | 0.135 | 0.417 | 0.135 | 0.421 | 0.131 | 0.425 | 0.125 | 0.409 | 0.075 | 0.354 | did not kill the bacteria | inhibited the growth |  |  |
| CC(=O)NCc1nc(-c2nc(C(=O)NCC(=O)NCc3nc(C(=O)NCCCN)cs3)cs2)co1 [Compound L2-3] |  |  |  |  |  |  |  |  |  |  |  | did not have a detectable effect |  |  |
| 2-(Fmoc-aminomethyl)-thiazole-4-carboxylic acid [Compound 1] |  |  |  |  |  |  |  |  |  |  |  |  | 25000 M⁻¹ |  |
| 2-(2′-Fmoc-aminomethyl-oxazole-4′-yl)-thiazole-4-carboxylic acid [Compound 3] |  |  |  |  |  |  |  |  |  |  |  |  | 20000 M⁻¹ |  |
| Microcin B17 fragment 13-23 [Compound 39] | 0.111 | 0.419 | 0.082 | 0.297 | 0.051 | 0.279 | 0.034 | 0.241 | 0.034 | 0.244 | did not kill the bacteria | inhibited the growth |  |  |
| CC(=O)NCc1nc(-c2nc(C(=O)NCC(=O)NCc3nc(C(=O)NCCCN)co3)cs2)co1 [Compound L2-6] | 0.137 | 0.395 | 0.130 | 0.391 | 0.120 | 0.402 | 0.113 | 0.427 | 0.073 | 0.388 | did not kill the bacteria | inhibited the growth |  |  |
| tachyplesin [reference compound] |  |  |  |  |  |  |  |  |  |  |  |  |  | OD650 of V. anguillarum cultures (Vibrio anguillarum; 6.25 μg/ml peptide, 9 hr incubation): 0.068; OD650 of V. anguillarum cultures (Vibrio anguillarum; 6.25 μg/ml peptide, 20 hr incubation): 0.036; OD650 of V. anguillarum cultures (Vibrio anguillarum; 12.5 μg/ml peptide, 9 hr incubation): 0.035; OD650 of V. anguillarum cultures (Vibrio anguillarum; 12.5 μg/ml peptide, 20 hr incubation): 0.035; OD650 of V. anguillarum cultures (Vibrio anguillarum; 25 μg/ml peptide, 9 hr incubation): 0.035; OD650 of V. anguillarum cultures (Vibrio anguillarum; 25 μg/ml peptide, 20 hr incubation): 0.035; OD650 of V. anguillarum cultures (Vibrio anguillarum; 50 μg/ml peptide, 9 hr incubation): 0.039; OD650 of V. anguillarum cultures (Vibrio anguillarum; 50 μg/ml peptide, 20 hr incubation): 0.038; OD650 of V. anguillarum cultures (Vibrio anguillarum; Dilution 5 (31.2 μg/ml) peptide, 9 hr incubation): 0.098; OD650 of V. anguillarum cultures (Vibrio anguillarum; Dilution 5 (31.2 μg/ml) peptide, 20 hr incubation): 0.034 |
| 2-(Fmoc-aminomethyl)-oxazole-4-carboxylic acid [Compound 2] |  |  |  |  |  |  |  |  |  |  |  |  | 24000 M⁻¹ |  |
